This assay has as its system P. falciparum 3D7 growth, pLDH absorbance. In words: P. falciparum 3D7 growth inhibition, dose response, strain 3D7 (AID 2305).

SMILES strings stand for the structures.

In the case of `COCCNCc1ncsc1-c1ccc2c(Nc3ccc(Oc4ccccc4)cc3)ccnc2c1`, the concentration for half-maximal inhibition (IC50) (as a rule, the concentration that gives 50% inhibition) worked out at 900 nM.

As for `CC(=O)OC[C@H]1O[C@@H](C#Cc2ccccc2)[C@H](OC(C)=O)[C@@H](OC(C)=O)[C@@H]1OC(C)=O`, the IC50 amounted to 280 nM.

In turn, `Cc1cc2[nH]c(-c3ccc(C(=O)NCCCN4CCN(c5cccc(Cl)c5)CC4)s3)nc2cc1Cl` showed a concentration for half-maximal inhibition (IC50) of 650 nM.

As to `Cc1ccc(CN2CCN(Cc3cccc(NC(=O)c4cccs4)c3)CC2)cc1C`, the IC50 came out at 1030 nM.

In turn, `COc1ccc2[nH]c3ccccc3c(=O)c2c1` displayed an IC50 of 1000 nM.

The compound `COc1cc2c(cc1S(=O)(=O)c1ccc(NC(=O)c3ccc4ccccc4c3)cc1)CCN(C)CC2` registered a 50% inhibitory concentration (IC50) of 800 nM.

As to `O=C(Nc1cccc(CN2CCCN(Cc3ccc(O)cc3)CC2)c1)c1ccc(-c2ccccc2)cc1`, the 50% inhibitory concentration (IC50) is 340 nM. Against the preceding compound, the IC50 is about 2.4-fold lower.

For the compound `O=C(Nc1cccc(CN2CCCN(CC3CC3)CC2)c1)c1ccc(Cl)c(Cl)c1`, the IC50 came to 1030 nM.

Regarding `COc1ccc(-c2ccc(NC(=O)c3cccc(F)c3)cc2)cc1CN1CCCN(C)CC1`, the IC50 was 670 nM.

With `COc1ccc(NC(=O)CSc2nc(-c3ccccc3Cl)ns2)cc1`, the IC50 stood at 1040 nM.

Regarding `O=C(NCCCN1CCC(N2CCCCC2)CC1)c1ccc(N2CCOc3ccccc32)s1`, the IC50 was found to be 730 nM.

Consider `Cc1cnc2ccc(NS(=O)(=O)c3ccc4c(Cl)cccc4c3)cc2c1N1CCNCC1`, for which the IC50 was 750 nM. The IC50 values of the last two compounds are within 1.5-fold of each other.

The compound `CCc1cc(NC(=O)Nc2ccnc3ccccc23)ccc1OC` came in with a half-inhibitory concentration (IC50) of 140 nM.

The compound `CCOC(=O)CC[C@@H](NC(=O)c1ccc(NCc2ccc3ccc4nc(C)[nH]c(=O)c4c3c2)cc1F)C(=O)N[C@@H](Cc1c[nH]c2ccccc12)C(=O)OCC` displayed an IC50 of 1030 nM.

Turning to `CCN1C(=O)C(CC(=O)Nc2cccc(Cl)c2)N(Cc2ccc(OC)c(OC)c2)C1=S` (centres undefined), the IC50 was determined as 610 nM.

Compound `Oc1ccc(CCNc2nc(NCc3cccc(-c4cc(C(F)(F)F)ccc4Cl)c3)nc(N3CCNCC3)n2)cc1` displayed an IC50 of 1780 nM.

Compound `FC(F)(F)c1cccc(CNCCCCCNCc2ccc(Cl)cc2)c1` had an IC50 of 1030 nM.

Regarding `Cc1cc(N[C@@H](CC(C)C)C(=O)NCc2cccs2)nc(NCCc2cccs2)n1`, the IC50 is 1020 nM. This IC50 and that of the compound before are within 1.5-fold of each other.

`COCCN(C)c1ccc(C(=O)Nc2ccccc2)cc1NS(=O)(=O)Cc1ccccc1` showed an IC50 of 570 nM.

As for `COc1ccc(NC(=O)NC2CCN(c3ccnc4cc(Cl)ccc34)CC2)cc1`, the IC50 turned out to be 730 nM.

Turning to `COc1cc(Nc2nccc(N3CCC(NC(=O)c4cc5ccccc5s4)C3)n2)cc(OC)c1OC` (centres undefined), the IC50 was 790 nM.

As to `CN1CCN(c2cc(NC(=O)Nc3ccc(-c4ccncc4)c(Cl)c3)ccc2Br)CC1`, the concentration for half-maximal inhibition (IC50) was 900 nM.

As to `O=[N+]([O-])c1cc(C=NNc2nc3nonc3nc2Nc2ccc(F)cc2)c(Cl)cc1Cl`, the IC50 turned out to be 760 nM.

The compound `O=C(N[C@H]1CCN(Cc2ccc(OC3CCN(Cc4ccccc4)CC3)c(Br)c2)C1)c1ccc(Cl)c(Cl)c1` gave an IC50 of 780 nM.

For `N#Cc1ccc2c(c1)CCN(CCC1CCC(NC(=O)/C=C/c3nc4ccccc4s3)CC1)CC2` (centres undefined), the concentration for half-maximal inhibition (IC50) stood at 830 nM.

For the compound `Cc1nc(N)nc(N)c1CCCOc1ccccc1Br`, the IC50 was found to be 420 nM.

Compound `COc1cc2ncnc(Nc3ccc(OCc4ccccc4)c(C(F)(F)F)c3)c2cc1OC` registered an IC50 of 250 nM.

In turn, `COc1cc(CCCON2C(N)=NC(N)=NC2(C)C)cc(OC)c1OC` showed an IC50 of 40 nM.

`O=S(=O)(c1ccccc1OC(F)(F)F)C1C[C@H]2CC[C@@H](C1)N2S(=O)(=O)c1cccc(C(F)(F)F)c1` (some centres undefined) yielded an IC50 of 670 nM.

In turn, `COc1c(C2CCN(CCCCNC(=O)c3cccc(-c4ccc(C(F)(F)F)cc4)c3)CC2)ccc2c1CCCC2` gave an IC50 of 780 nM.

As to `O=C(Nc1ccc2c(c1)CCC2)c1cnc(N2CCN(c3ccncc3)CC2)c(Cl)c1`, the IC50 stood at 1110 nM.

The compound `CCOC(=O)COc1cccc(CNc2ccc3nc(N)nc(N)c3c2)c1` yielded an IC50 of 410 nM.

The compound `CCOC(=O)CCCCCNC[C@H](O)c1ccccc1` displayed an IC50 of 330 nM.

Compound `Cc1[nH]c(C)c(-c2ccc(OCc3ccc(OC(F)(F)F)cc3)nc2)c(=O)c1Cl` gave an IC50 of 70 nM.

Values taken from PubChem BioAssay AID2305 (GlaxoSmithKline (GSK), 2010).
